Data taken from PubChem BioAssay (NCI).
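Assay format: 96-well plates, 48-hour exposure. The concentration for 50% growth inhibition is given as GI50. TGI: total growth inhibition.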

Key:
Assay in all cases: NCI tumour cell line growth inhibition, 48 h
ACHN renal = tested on: ACHN renal
HCC-2998 colon = tested on: HCC-2998 colon
HCT-15 colon = tested on: HCT-15 colon
OVCAR-3 ovarian = tested on: OVCAR-3 ovarian
RPMI-8226 leukemia = tested on: RPMI-8226 leukemia
SF-268 CNS = tested on: SF-268 CNS
SK-MEL-28 melanoma = tested on: SK-MEL-28 melanoma
IGROV1 ovarian = tested on: IGROV1 ovarian
UACC-62 melanoma = tested on: UACC-62 melanoma
MDA-N = tested on: MDA-N

SMILES	TGI (ACHN renal) [µM]	TGI (HCC-2998 colon) [µM]	TGI (HCT-15 colon) [µM]	TGI (OVCAR-3 ovarian) [µM]	TGI (RPMI-8226 leukemia) [µM]	TGI (SF-268 CNS) [µM]	TGI (SK-MEL-28 melanoma) [µM]	TGI (IGROV1 ovarian) [µM]	TGI (UACC-62 melanoma) [µM]	TGI (MDA-N) [µM]	GI50 (ACHN renal) [µM]	GI50 (HCC-2998 colon) [µM]	GI50 (HCT-15 colon) [µM]	GI50 (IGROV1 ovarian) [µM]	GI50 (OVCAR-3 ovarian) [µM]	GI50 (RPMI-8226 leukemia) [µM]	GI50 (SF-268 CNS) [µM]	GI50 (UACC-62 melanoma) [µM]	GI50 (SK-MEL-28 melanoma) [µM]
Cc1cc(C)c2c(=O)cc(-c3cccc(F)c3)[nH]c2n1	> 100	3.94	> 38.2	0.318	> 55.1	> 93.3	92.9	–	–	–	–	–	–	–	–	–	–	–	–
O=S(=O)(c1cc(Cl)ccc1Cl)n1ccnc1	> 100	42.4	89.5	> 100	91.6	> 100	> 100	> 100	> 100	–	–	–	–	–	–	–	–	–	–
NCCCCNCCCNC(=O)c1nc(-c2nc(CCN)sc2Cl)sc1Cl	> 100	> 100	> 100	> 100	> 100	25.4	> 100	> 100	> 100	–	–	–	–	–	–	–	–	–	–
COC(=O)[C@@H]1CCCCC[C@H]2C(CO)=C(C)C(=O)C12 (stereo partly drawn)	> 100	> 100	> 100	–	> 100	> 100	> 100	> 100	> 100	–	–	–	–	–	–	–	–	–	–
COc1ccc(C2C3=C(COC3=O)Oc3cc4c(cc32)OCO4)c(OC)c1 (stereo not drawn)	> 100	> 100	> 100	58.7	> 100	> 100	> 100	> 100	–	–	–	–	–	–	–	–	–	–	–
C=C1N(C=O)C(C)(C)N(O)C1(C)C	> 100	> 100	> 100	> 100	> 100	> 100	> 100	> 100	> 100	–	–	–	–	–	–	–	–	–	–
CCOc1ccc(Nc2nc(N)nc(N)c2N)cc1	> 100	–	> 100	> 100	38.1	31.1	> 100	28.6	> 100	13.3	–	–	–	–	–	–	–	–	–
COC(=O)C1CCc2sc3ncnc(Nc4cn[nH]c4C(=O)Nc4ccc(CN5CCN(C)CC5)cc4)c3c21 (stereo not drawn)	10.1	31.5	> 100	2.04	4.21	2.63	–	> 100	6.59	–	0.232	1.82	0.423	0.447	0.334	1.41	0.666	1.36	–
CC[C@H](Nc1nc(C)nc(N)c1C#N)c1nc2cccc(NCc3ccc(C(=O)NO)cc3)c2c(=O)n1-c1ccccc1	3.69	3.28	–	2.96	5.26	3.53	3.28	–	3.17	–	1.63	1.67	–	–	1.48	2.03	1.63	1.55	1.6
CCOC(=O)c1s/c(=N\Nc2nc3ccccc3cc2C2OCCO2)n(Cc2ccccc2)c1C	> 100	–	> 100	> 100	> 100	> 100	> 100	> 100	> 100	–	–	–	–	–	–	–	–	–	–
COC(=O)C1(CCCCCBr)CCCCCCCCCCC1=O (stereo not drawn)	> 100	> 100	> 100	> 100	–	> 100	92.2	87.2	> 100	> 100	–	–	–	–	–	–	–	–	–
C=C1OC(c2ccccc2NC)=NC12CCCCC2	> 100	> 100	> 100	> 100	–	> 100	> 100	> 100	> 100	> 100	–	–	–	–	–	–	–	–	–
COc1ccc2nc(/C(N)=C\C#N)ccc2c1	> 100	–	> 100	> 100	> 100	> 100	> 100	> 100	> 100	> 100	–	–	–	–	–	–	–	–	–
Cn1c(=O)c2c(nc3n(Cc4ccccc4)c(=O)c(NCCCBr)cn23)n(C)c1=O	> 100	> 100	> 100	> 100	> 100	> 100	> 100	> 100	> 100	–	–	–	–	–	–	–	–	–	–
CCC1=C(C(C)=O)[C@@H]2CCCCC[C@@H](C(=O)OC)C2C1=O (stereo partly drawn)	> 100	> 100	> 100	–	> 100	> 100	> 100	> 100	> 100	–	–	–	–	–	–	–	–	–	–
OCCOCn1nncc1Cn1ncc2c(SCc3ccccc3)ncnc21	> 100	> 100	> 100	> 100	–	> 100	> 100	> 100	> 100	> 100	–	–	–	–	–	–	–	–	–
CCc1c(CNc2ccc(C(=O)NC(CC(=O)O)C(=O)O)cc2)ccc2nc(N)nc(N)c12 (stereo not drawn)	> 1000	–	> 1000	> 1000	> 1000	> 1000	> 1000	> 1000	> 1000	> 1000	–	–	–	–	52.8	1.28	–	–	> 1000
CSC(SC)=C(C(=O)O)P(=O)(O)O	> 100	> 100	> 100	> 100	–	> 100	> 100	> 100	> 100	> 100	–	–	–	–	–	–	–	–	–
CS(=O)(=O)Nc1ccc2c(c1)N(S(C)(=O)=O)CC2CCl (stereo not drawn)	> 100	> 100	> 100	> 100	> 100	> 100	> 100	> 100	> 100	–	–	–	–	–	–	–	–	–	–
CC(C)N1CC2CC(CN(C(=O)c3ccccc3)C2)C1	> 100	> 100	> 100	> 100	> 100	> 100	> 100	> 100	> 100	–	–	–	–	–	–	–	–	–	–
C[C@]12CCC(=O)[C@@H](CCC3=CC(=O)C=CC3=O)[C@@H]1CCC2=O	32.5	31.4	> 31.6	36	> 100	39.5	37.1	–	44.1	> 52.8	–	–	–	–	–	–	–	–	–
